Series [1] concerns B16BL6 melanoma tumor tissue. Kind of series: Competitive inhibition experiment using the respective phages and synthetic 8-residue or 5-residue peptides. The note with it: FIG. 1. It counts as in vivo, C57BL/6 mice. On the procedure:
Thus, 10 days after implantation of B16BL6 melanoma (1×10^6 cells) into five-week-old C57BL/6 mice (obtained from Japan SLC), a mixed solution (0.2 ml) of 0.25 μmol of one of the above synthetic peptides and the respective phage (1×10^8 colony forming units) was administered into the tail vein of each tumor-bearing mouse under anesthesia, and the colony forming units of the phage accumulated in the tumor tissue were counted in a similar manner as mentioned above.
Using a similar method as described above under (2) and using the four short-chain peptides (SEQ ID NO:13 to 16) obtained as mentioned above under (2) in lieu of the synthetic peptides (SEQ ID NO:5 and 6), the synthetic peptides and the respective phages were administered and colony forming units for the phages accumulated in the tumor tissue were counted, and the short-chain synthetic peptides were evaluated for their inhibitory effect on phage accumulation. In a control group,synthetic peptide-free phage solutions (1×10^8 colony forming units) were administered.
In each figure, the ordinate denotes the phase accumulation percentage (%) and the abscissa denotes the phage number. In FIG. 1, the open bar is for the group (control group) given the phage alone without administration of any synthetic peptide, the shaded bar is for the group given the short-chain synthetic peptide shown in SEQ ID NO:13 and the closed bar is for the group given the short-chain synthetic peptide shown in SEQ ID NO:14.
In FIG. 2, the open bar is for the group (control group) given the phage alone without administration of any synthetic peptide, the closed bar is for the group given the short-chain peptide shown in SEQ ID NO:15 (where phage No. 5 was used) and the shaded bar is for the group given the short-chain peptide shown in SEQ ID NO:16 (where phage No. 6 was used).

In the next series the test system is Meth A sarcoma. Kind of series: Antitumor effect of adriamycin-including peptide-modified liposomes, tail vein administration. The note with it: FIG. 15; after three tail vein administrations on days 6, 9 and 12. It counts as in vivo, BALB/c mice. On the procedure:
Solid tumor-bearing mice were prepared by subcutaneously administering Meth A sarcoma cells (1×10^6 cells/mouse) into the left flank of five-week-old BALB/c male mice (Japan SLC). The day of implantation was taken as day 1 and, on days 6, 9 and 12, the 0.3 M glucose solution (solvent) as a control, adriamycin (ADR)-including control liposomes (liposomes including the anticancer agent but free of any angiogenesis-specific peptide of the invention), a free ADR solution prepared by dissolving the anticancer agent ADR in a concentration of 15 mg/kg (mouse) in 0.3 M glucose, and the ADR-including, angiogenesis-specific peptide-modified liposomes of the invention as prepared above in (1) were respectively administered into the tail vein. In the test, 5 tumor-bearing mice were used in each group.
The antitumor effect of each agent administered was evaluated by examining, from 5 days after tumor implantation, the tumor volume as an indicator of tumor growth and the mouse body weight change as well as the survival period (days) as an indicator of side effect, in a similar manner as in Example 4 (2).
In the figure, the ordinate denotes the tumor volume and the ascissa denotes the number of days after tumor implantation. […]

With “SEQ ID NO: 14: 8-Residue peptide comprising positions 8 to 15 of SEQ ID NO: 6 (IHWRPWAR; phage library)”, in series [1], the “cross reactivity between phages” value was “showed cross reactivity” and the “inhibitory activity compared with the 15-residue synthetic peptides” value is “higher in inhibitory activity than the 15-resiude synthetic peptides”. The “inhibition of phage accumulation by 8-residue synthetic peptides” value in series [1] (phages expressing the corresponding 15-residue peptides (Nos. 5 and 6)) is listed as “inhibited the accumulation of the phages”.
In the case of `COc1cccc2c1C(=O)c1c(O)c3c(c(O)c1C2=O)C[C@@](O)(C(=O)CO)C[C@@H]3O[C@H]1C[C@H](N)[C@H](O)[C@H](C)O1` [free ADR solution, adriamycin], the death of mice entry in the series on Meth A sarcoma is reported as “all mice died”.

Values taken from US6753310B1, “Neovascular-specific peptides” (Otsuka Pharmaceutical Co., Ltd., priority 1998, dated 2004).
